Consider four molecules from patent US20160366886A1, “BIOCIDAL COMPOSITION, PREPARATION AND METHODS OF USE THEREOF” (BROMINE COMPOUNDS LTD., priority 2014, published 2016).

Data set [1] concerns Pseudomonas aeruginosa (ATCC 15442). In words: Biocidal activity against simulated biofilm (bacteria entrapped in alginate gel beads), surviving CFU. To be noted: for time of total kill: alginate beads, pH 7. In kind it is cell-based. An excerpt: A biofilm simulation system developed by the Biofilm Bozeman Institute Montana (Grobe K. J., Zahler J., and Stewart P. S., 2002 in “Role of dose concentration in biocide efficacy against Pseudomonas aeruginosa Biofilms”, J. Industrial Microbiology & Biotechnology, vol. 29, pp 10-15), was used in this experiment to evaluate the efficacy of biocidal solutions against biofilm.
The biofilm simulation was created by entrapping bacteria in alginate gel beads. A plate of R2A agar was streaked with Pseudomonas aeruginosa (ATCC 15442) and incubated at 35° C. overnight. Buffer phosphate at pH 7.2 was used to scrap off the bacteria from the agar plate and to create a suspension. The bacterial suspension was mixed with an equal volume of an aqueous 4% sodium alginate solution, to make a final 2% alginate solution. The alginate and bacterial slurry were placed in a 50 ml syringe attached to a 22 gauge needle, connected to a compressed air tank, allowing the syringe to be pressurized. At 20 psig pressure a stream of small drops was forced out and dropped into a stirred solution of 50 mM CaCl2. The Ca^+2 cross linked the alginate, and semi solid beads with entrapped bacterial cells were formed. The beads were allowed to stir in the CaCl2 solution for about 20 minutes, and then rinsed in a dilute 5 mM CaCl2 solution. Several flasks containing 100 beads each were incubated overnight at 35° C. on a rotating shaker in a buffer solution (at pH 7) with 5 mM addition of CaCl2 to maintain the beads structure. The resulting beads diameter is about 2 mm
At the beginning of the experiment, the supernatant of the beads buffer suspension containing 5 mM CaCl2 was decanted and replaced by the 100 ml biocide solution with the required concentration (between 0.5, 1, 2.5 and 5 ppm as total Cl2).
After different interval contact times, 10 beads were removed and placed in a 5 g/l sodium thiosulfate solution containing 50 mM sodium citrate. The sodium citrate was used to dissolve the alginate gel and release the bacteria into the solution. The neutralizer-citrate solution was placed in the refrigerator for 2 hours, than diluted and placed on R2A agar plates using pour plate technique. The plates were incubated at 35° C. for 24-48 hours and counted. The efficacy and toxicity of the neutralizer were checked as well as a control experiment without biocide addition. Four concentrations (0.5, 1, 2.5 and 5 ppm) were tested at four different contact times (5, 15, 30, and 60 min) FIGS. 1-10 describe the surviving colony forming units (CFU) of the bacteria after the biocide treatment at different contact times.

Data set [2] is described as follows: Stability of the aqueous biocide solution (total active chlorine as Cl2 over time). Type of data set: physicochemical. An excerpt:
The concentration of the active chlorine is based on the measurement of total chlorine (as Cl2). The term “as Cl2” refers to the measurement of the active chlorine as total chlorine.

The mark [3] stands for this setting: 1 ppm dose, contact time not stated.

Consider `O=c1nc([O-])n(Cl)c(=O)n1Cl.[Na+]` [NaDCC, sodium dichloroisocyanurate], for which the “effect on the microbe concentration” value in data set [1] (0.5 ppm dose) and in data set [1] (1 ppm dose) was “almost no activity” in each case. In addition, the “log reduction of microbe concentration” value in data set [1] (setting [3]) is listed as 1 log; in data set [1] (2.5 ppm dose, after 60 min), “more than 4 log”. Also, the “time of total kill” value in data set [1] (2.5 ppm dose (as total Cl2)) is listed as 60 min; in data set [1] (5 ppm dose (as total Cl2)), 30 min.

Take `[Na+].[O-]Cl` [NaOCl]: the “effect on the microbe concentration” value in data set [1] (0.5 ppm dose) was “no effect was observed at all”. In addition, the “log reduction of microbe concentration” value in data set [1] (setting [3]) was 1 log; in data set [1] (2.5 ppm dose, after 60 min), 1 log; in data set [1] (2.5 ppm dose, contact time not stated), 1 log. Besides, the “time of total kill” value in data set [1] (5 ppm dose (as total Cl2)) was 60 min.

As for `O=c1n(Cl)c(=O)n(Cl)c(=O)n1Cl` [TCCA, trichloroisocyanuric acid], the “effect on the microbe concentration” value in data set [1] (0.5 ppm dose) and in data set [1] (1 ppm dose) was “almost no activity” each time. Besides, the “log reduction of microbe concentration” value in data set [1] (setting [3]) was 1 log. Moreover, the results for the “time of total kill” value in data set [1] (2.5 ppm dose (as total Cl2)) and in data set [1] (5 ppm dose (as total Cl2)) were 60 min and 30 min, respectively.

As to `NCl` [chloramine], the “log reduction of microbe concentration” value in data set [1] (0.5 ppm dose, contact time not stated) is 4 log. In data set [2] (after 20.3 hrs), the “active chlorine reading (as Cl2)” value came to 493 ppm and the “active chlorine remaining, percent of initial” value is on record as 91%. In data set [2] (after 44.4 hrs), the “active chlorine reading (as Cl2)” value is 223 ppm and the “active chlorine remaining, percent of initial” value came to 41.4%. Further, the “time the solution / active Cl2 level stayed stable (unchanged)” value in data set [2] (aqueous solution about 500 ppm as Cl2) was determined as 2 h. Further, the “total active Cl2 found after mixing” value in data set [2] (freshly mixed solution, expected 500 ppm as Cl2) worked out at 539 ppm.
